We go through three compounds from patent US7417066B2, “Inhibitors of soluble adenylate cyclase” (Schering AG, priority 2005, dated 2008).

What is called IC50 is the point on the concentration scale where inhibition reaches its midpoint.

The target of the test is soluble, sperm-specific adenylate cyclase (sAC) (Homo sapiens, UniProt Q96PN6). Nature of the test: sAC assay (HTRF cAMP detection). The format is biochemical. The following applies: read-out: IC50 (μM), inhibition of soluble adenylate cyclase. The text has this: In a suitable buffer system, soluble, sperm-specific adenylate cyclase catalyzes the conversion of adenosine triphosphate (ATP) to cyclic adenosine monophosphate (cAMP) and pyrophosphate. Free cAMP generated in this way is then used in a competitive detection technique, in which the binding of a europium cryptate Eu[K]-labeled anti-cAMP antibody (anti-cAMP-Eu[K]-AB) to a modified allophycocyanine-1 molecule labeled with cAMP molecules (cAMP-XL665) is prevented. In the absence of exogenous cAMP, after excitation at 335 nm there is Fluorescence Resonance Energy Transfer (FRET) between the anti-cAMP-Eu[K]-AB (FRET donor) and the cAMP-XL665 molecule (FRET acceptor). This process is quantified, time-resolved, on the basis of the emission of the FRET acceptor XL665 (665 nm and 620 nm). A decrease in signal (measured as Well Ratio; calculated from the Formula: [(E665 nm/E620 nm)×10000]) can be attributed to the presence of cAMP and thus to the activity of sAC. First, 1.5 μl of the test substance (in 30% DMSO) is placed in each well of a 384-well test plate (polystyrene; 384, NV), and in the solvent controls only 30% DMSO. Then 10 μl of a dilute sAC enzyme solution is applied (enzyme stock solution in 300 mM NaCl, 10% glycerol; pH 7.6; enzyme intermediate and final dilution a) 1:10 and b) 1:2000 in each case in: 1.0 mM MnCl2; 0.2% BSA; 50 mM Tris pH 7.5 in H2O). […]
Sequence of soluble, sperm-specific adenylate cyclase (sAC) (Q96PN6 whole entry): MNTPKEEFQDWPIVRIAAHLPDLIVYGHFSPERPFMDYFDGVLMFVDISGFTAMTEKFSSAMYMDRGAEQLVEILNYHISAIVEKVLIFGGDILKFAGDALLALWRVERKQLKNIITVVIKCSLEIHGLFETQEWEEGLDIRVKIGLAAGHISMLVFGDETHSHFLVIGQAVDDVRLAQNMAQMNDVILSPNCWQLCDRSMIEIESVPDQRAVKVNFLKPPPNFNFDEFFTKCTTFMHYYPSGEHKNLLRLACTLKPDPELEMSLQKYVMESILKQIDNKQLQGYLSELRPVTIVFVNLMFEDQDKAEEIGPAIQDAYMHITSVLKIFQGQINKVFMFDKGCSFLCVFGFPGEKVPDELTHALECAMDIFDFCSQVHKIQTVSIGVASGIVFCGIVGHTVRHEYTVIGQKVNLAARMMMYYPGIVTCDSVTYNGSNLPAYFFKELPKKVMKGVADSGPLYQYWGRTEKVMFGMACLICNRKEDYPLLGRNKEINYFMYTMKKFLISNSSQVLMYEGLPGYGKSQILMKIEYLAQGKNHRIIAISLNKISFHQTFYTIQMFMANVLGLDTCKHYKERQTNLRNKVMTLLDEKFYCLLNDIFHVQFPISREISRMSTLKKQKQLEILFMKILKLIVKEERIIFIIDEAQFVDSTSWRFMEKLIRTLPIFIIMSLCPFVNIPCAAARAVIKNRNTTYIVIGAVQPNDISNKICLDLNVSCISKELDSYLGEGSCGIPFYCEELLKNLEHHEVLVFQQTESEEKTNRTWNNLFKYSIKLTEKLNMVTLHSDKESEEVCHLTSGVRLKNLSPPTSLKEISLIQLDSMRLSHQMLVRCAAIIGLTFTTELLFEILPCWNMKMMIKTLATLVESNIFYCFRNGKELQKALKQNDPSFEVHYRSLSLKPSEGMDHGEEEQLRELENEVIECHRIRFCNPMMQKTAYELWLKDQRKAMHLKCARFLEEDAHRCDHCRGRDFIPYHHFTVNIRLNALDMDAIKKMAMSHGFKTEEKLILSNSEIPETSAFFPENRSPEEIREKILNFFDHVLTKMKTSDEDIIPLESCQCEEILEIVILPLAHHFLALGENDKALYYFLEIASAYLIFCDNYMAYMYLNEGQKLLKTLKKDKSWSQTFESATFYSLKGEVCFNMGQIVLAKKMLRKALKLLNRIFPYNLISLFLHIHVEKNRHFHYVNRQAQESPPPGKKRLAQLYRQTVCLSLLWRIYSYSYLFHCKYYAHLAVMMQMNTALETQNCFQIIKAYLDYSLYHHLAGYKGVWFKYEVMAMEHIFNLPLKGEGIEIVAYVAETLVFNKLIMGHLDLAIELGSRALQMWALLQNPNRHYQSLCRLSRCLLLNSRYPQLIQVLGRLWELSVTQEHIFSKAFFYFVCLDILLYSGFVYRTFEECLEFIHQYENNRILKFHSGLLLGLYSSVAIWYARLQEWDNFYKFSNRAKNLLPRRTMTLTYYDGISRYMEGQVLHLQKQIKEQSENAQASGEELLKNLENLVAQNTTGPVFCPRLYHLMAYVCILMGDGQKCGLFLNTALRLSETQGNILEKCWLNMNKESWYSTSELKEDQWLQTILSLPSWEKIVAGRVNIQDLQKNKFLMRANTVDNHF
Next, 8 μl of detection solution 1 is placed in a well of the 384-well measuring plate (measuring plate: polystyrene; 384, SV—black; detection solution 1: 50 μl cAMP-XL665; 950 μl reconstituted buffer; 2200 μl PBS; cAMP-XL665: prepared by adding 5 ml H2O to the lyophilized product according to the instructions in Cis bio Kit: 62AMPPEC; storage: in aliquots at −80° C.). […] After further incubation for 90 min at room temperature, the HTRF result is measured either on the Packard Discovery or with the RubiStar HTRF measuring instrument (delay: 50 μs; integration time: 400 μs).
On to `CC(O)CNC(=O)c1oc2ccc(NS(=O)(=O)c3ccc(C(C)(C)C)cc3)cc2c1-c1ccccc1` (racemic) [Example 16, (+/−)-5-(4-tert-Butylphenylsulfonylamino)-3-phe-nyl-1-benzofuran-2-carboxylicacid-(2-hydroxypropyl)amide], for which the IC50 worked out at 4.3 µM. To `CC(CO)NC(=O)c1oc2ccc(NS(=O)(=O)c3ccc(C(C)(C)C)cc3)cc2c1-c1ccccc1` (racemic) [Example 17, (+/−)-5-(4-tert-Butylbenzenesulfonylamino)-3-phe-nyl-1-benzofuran-2-carboxylicacid-(2-hydroxy-1-meth-ylethyl)amide] belongs 8.5 µM. For the compound `CC(C)(C)c1ccc(S(=O)(=O)Nc2ccc3oc(C(=O)NCCN4CCOCC4)c(-c4ccccc4)c3c2)cc1` [Example 6, 5-(4-tert-Butylbenzenesulfonylamino)-3-phe-nyl-1-benzofuran-2-carboxylicacid-(2-morpholin-4-ylethyl)amide], the IC50 was 5.2 µM.
